Test results as given in US20170056351A1, “COMPOSITION FOR INDUCING TUMOR IMMUNITY” (UNIVERSITY OF OCCUPATIONAL AND ENVIRONMENTAL HEALTH, JAPAN, priority 2014, published 2017).

Key:
9L gliosarcoma cells = test: Accumulation of ALA-induced PpIX in rat subcutaneous tumor model (HPLC analysis and fluorescence observation); type: in vivo
Experimental: As experimental animals, inbred male Fischer 344 rats (8 week old) (SLC, Inc. (Hamamatsu, Japan)) were used and were inoculated with 9L gliosarcoma cells. […] In short, 9L gliosarcoma cells (1×10^6 cells) were transplanted into the skin on the dorsal side of each Fischer 344 rat, so as to produce a rat subcutaneous tumor model.
Specifically, after the transplanted tumor had grown to a size of 1 cm in diameter, 100 mg/kg body weight of ALA was injected into the caudal vein of each rat (i.v.). Three hours later, the rat was anesthetized, and a tumor portion, excluding a portion covering the dorsal skin, was excised from the rat. The tumor portion was immediately subjected to a freezing treatment using dry ice, and the resultant was then preserved at −80° C. in a dark place.
Specifically, a tumor sample (approximately 1 mm in diameter) was treated with 200 μl of 0.1 M NaOH, and it was then homogenized on ice, using Powermasher II (Assist, Tokyo, Japan). […]
For the elution, Solvent A was used for 5 minutes, then, linear gradient Solvent B (0% to 100%) was used for 25 minutes, and thereafter, Solvent B was used for 10 minutes. The flow rate for elution was maintained at constant, using a fluorospectro-photometer (excited at 404 nm, and detected at 624 nm). […]

U251 cells [1] = test: Cellular ROS levels after ionizing irradiation (DCFD, flow cytometry), U251; type: cell-based, human; conditions: for relative MFI of DCF fluorescence 12 hours after ionizing irradiation, timing study: 10 Gy
Experimental: Intracellular ROS production was evaluated using the oxidant-sensitive fluorescence probe DCFD and flow cytometry (Yamamori T, Yasui H, Yamazumi M, et al: Ionizing radiation induces mitochondrial reactive oxygen species production accompanied by upregulation of mitochondrial electron transport chain function and mitochondrial content under control of the cell cycle checkpoint. Free Radic Biol Med 53: 260-270, 2012.). The cells were seeded on a 100-mm culture dish, and using an X-ray irradiation apparatus (MBR-1520R; Hitachi, Tokyo, Japan) (0.67 Gy/min), the cells were then irradiated with a radiation of 10 Gy in a dark room. During the ionizing irradiation, the culture dish was maintained at a room temperature in a dark container. In the case of a 5-ALA and ionizing irradiation group (RT,12 h+ALA), the cells were treated with 1 mM 5-ALA for 4 hours, then, immediately after the treatment, the cells were irradiated with ionizing radiation, and were then incubated together with 10 μM DCFD at 37° C. for 15 minutes, followed by washing with PBS twice. Thereafter, as described above, the cells were analyzed using a flow cytometer (excitation: 488 nm; radiation: 525/50 nm band-pass filter). Control cells were not exposed to ionizing radiation or 5-ALA. In a 5-ALA group, the cells were treated with 1 mM 5-ALA for 4 hours, but were not exposed to ionizing radiation. The control cells and the cells of the 5-ALA group were treated with DCFD in the same manner as described above. In order to prevent the photoactivation of 5-ALA-induced PpIX and DCFD, all procedures were carried out in a dark room. The flow cytometric data were analyzed using FlowJo (Tree Star Inc., Ashland, Oreg., USA). The MFI of the DCF fluorescence in the cells, with respect to that in control cells, was calculated for each cell line.
The cells were seeded on a 100-mm culture dish, and were then exposed to an ionizing radiation of 10 Gy. The incubation time (4 h) of 1 mM 5-ALA was the same among individual groups, and three types of 5-ALA treatment times were initiated: i) 5-ALA treatment immediately before ionizing irradiation [RT+ALA (pre) group]; ii) 5-ALA treatment immediately after ionizing irradiation [RT+ALA (4 h) group]; and iii) 5-ALA treatment 8 hours after ionizing irradiation [RT+ALA (12 h) group]. In each group, twelve hours after the ionizing irradiation, the cells were incubated together with 10 μM DCFD at 37° C. for 15 minutes, and were then washed with PBS twice. Immediately after the washing, as described above, DCF fluorescence was analyzed using a flow cytometer. Control cells were not treated with ionizing radiation or 5-ALA. In a group involving only ionizing irradiation (RT), the cells were exposed to ionizing radiation, without performing 5-ALA treatments, and were then treated with DCFD twelve hours after the exposure to the ionizing radiation in the same manner as described above. All procedures were carried out in a dark room. The flow cytometric data were analyzed using FlowJo software. The MFI of the DCF fluorescence in the cells, with respect to that in control cells, was calculated for each cell line.

U251 cells [2] = test: Intracellular localization of ROS 12 hours after ionizing radiation (DCFD, confocal laser scanning microscope), U251; type: cell-based, human; conditions: pre-treatment with 1 mM 5-ALA 4 hours before 10 Gy, 12 hours after irradiation, vs no 5-ALA
Experimental: Intracellular ROS production was detected by our method using DCFD and a confocal laser scanning microscope (LMS5 Pascal; Carl Zeiss, Jena, Germany) (Yamamoto J, Ogura S, Tanaka T, et al: Radiosensitizing effect of 5-aminolevulinic acid-induced protoporphyrin IX in glioma cells in vitro. Oncol Rep 27: 1748-1752, 2012.). Briefly, the cells were seeded in a fresh medium containing 1 mM 5-ALA in a 35-mm glass-bottom culture dish (Asahi Techno Glass, Tokyo, Japan), and were then incubated at 37° C. for 4 hours in a dark room. Thereafter, the cells were washed with PBS, and were then exposed to an ionizing radiation of 10 Gy. Twelve hours after the ionizing irradiation, the cells were washed with PBS twice, and were then incubated together with 10 μM DCFD for 15 minutes. Thereafter, the cells were washed with PBS twice, and immediately after the washing, the resulting cells were observed. DCFD fluorescence (excitation: 488 nm; radiation: 505-530 nm band-pass filter) was imaged on a confocal laser scanning microscope. All procedures were carried out in a dark room.

In the case of `NCC(=O)CCC(=O)O` [ALA, 5-aminolevulinic acid], the “amount of PpIX in tumor induced by ALA (HPLC)” value (9L gliosarcoma cells; 3 hours after intravenous administration of ALA 100 mg/kg body weight, mean±SE) is reported as 3.66±0.91 pmol/mg protein, the “fluorescence of subcutaneous tumor under 410 nm light” value (9L gliosarcoma cells; 3 hours after intravenous administration of ALA, compared with control tumor without ALA) is reported as “strong fluorescence” and the “relative MFI of DCF fluorescence (cellular ROS)” value (U251 cells [1]; 1 mM 5-ALA 4 hours, without ionizing irradiation, relative to control cells, average±SE) is reported as 0.87±0.06. The “relative MFI of DCF fluorescence 12 hours after ionizing irradiation, timing study” value (shortened to “relative MFI … timing study”) (U251 cells [1]; 5-ALA treatment 8 hours after ionizing irradiation, RT+ALA (12 h) group) was 1.38±0.05, the “relative MFI … timing study” value (U251 cells [1]; 5-ALA treatment immediately after ionizing irradiation, RT+ALA (4 h) group) was 1.43±0.02 and the “relative MFI … timing study” value (U251 cells [1]; 5-ALA treatment immediately before ionizing irradiation, RT+ALA (pre) group) was 1.44±0.02. The “relative MFI of DCF fluorescence (cellular ROS)” value (U251 cells [1]; 12 hours after 10 Gy ionizing irradiation with 5-ALA pre-treatment (1 mM, 4 hours), p=0.031 vs RT 12 h) was 1.51±0.10 and the “DCF fluorescence in the cytoplasm (confocal)” value (U251 cells [2]) was “apparently increased”.
